Laboratory results published in patent US6673807B1, “Immunosuppressive imidazole derivatives and their combination preparations with tacrolimus or cyclosporins” (Fujisawa Pharmaceutical Co., Ltd., priority 1998, dated 2004).

Tests used:
[1] = test system: production of nitric oxide in RAW264.7 cells; assay: Assay for inhibitory activity on the production of nitric oxide (Griess, LPS + INFγ activated cells); assay type: cell-based, murine; conditions: Mus musculus; test compound 10^-5 M; RAW264.7 cells activated with LPS 1 μg/ml and INFγ 3 u/ml for 18-24 hours
Procedure: Test: Assay for Inhibitory Activity on the Production of Nitric Oxide
The murine macrophage cell line RAW264.7 (American Type Culture Collection, No. TIB71) was used in this study. RAW264.7 cells were grown on F75 plastic culture flasks at 37° C., 5% in Dulbecco's modified Eagle's medium (DMEM) supplemented with L-glutamine, penicillin, streptomycin and 10% heat-inactivated fetal bovine serum. They were removed from culture flasks by rubber cell scraper and were centrifuged and resuspended in DMEM without phenol red. They were plated in 96-well microtiter plates (10^5 cells per well) and allowed to adhere over 2 hours. The test samples were added and the cells were preincubated for 1 hour. Thereafter the cells were activated with both of lipopolysaccharide (LPS) (1 μg/ml) and interferon γ (INFγ) (3 u/ml) for 18-24 hours. An equal volume of Griess reagent (1% sulfanilamide/0.1% N-naphthylethylenediamine dihydrochloride/2.5% H3PO4) was added and the cells were incubated at room temperature for 10 minutes. The absorbance was read at 570 nm using microplate reader and NO2 was measured using NaNO2 as a standard.

[2] = test system: NOx in rat plasma; assay: Concentration of nitrite/nitrate (NOx) in rat plasma after cardiac transplantation (Griess reaction); assay type: in vivo
Procedure: (§1) Experiments were performed on male Lewis and ACI rats weighing 175-200 g. Rats were anesthetized with sodium pentobarbital (50 mg/kg, i.p), and performed allogeneic (Lewis donor to ACI recipient) heterotopic intra-abdominal cardiac transplantation. Experimental groups were divided into single-drug group and combined-drug groups. Single-drug dose of FK506 was 0.32 mg/kg. Combined-dose groups were FK506(0.32 mg/kg)+the compound (f) (3.2 mg/kg), FK506(0.32 mg/kg)+the compound (f) (10 mg/kg), and FK506(0.32 mg/kg)+the compound (g) (10 mg/kg). The grafted hearts were monitored by daily palpation and complete rejection was defined as the cessation of palpable contractile activity. Drugs were suspended in a solution of 0.5% methylcellulose, and administered by daily gastric intubation in a volume of 5 ml/kg of body weight for 14 days. The blood samples were collected on 5 days after transplantation for analysis of nitrite/nitrate (NOx). The concentration of NOx in rat plasma was measured by using a spectrophotometric assay based upon the Griess reaction.

[3] = test system: rat cardiac allograft; assay: Rat cardiac allograft survival (Lewis donor to ACI recipient, heterotopic intra-abdominal cardiac transplantation); assay type: in vivo; conditions: for MST (Median Survival Time): daily gastric intubation for 14 days
Procedure: Protective effect of the compound (f) or (g) combined with FK506 on rat cardiac allograft:
as §1

Structure (SMILES)	inhibition at 10 µM [1] [%]	also measured
Cn1c(-c2ccc([N+](=O)[O-])cc2)cnc1[C@H](CC(=O)Nc1ccccn1)NC(=O)c1cc2ccccc2[nH]1 [(c)]	100	
C=CC[C@@H]1/C=C(\C)C[C@H](C)C[C@H](OC)[C@H]2O[C@@](O)(C(=O)C(=O)N3CCCC[C@H]3C(=O)O[C@H](/C(C)=C/[C@@H]3CC[C@@H](O)[C@H](OC)C3)[C@H](C)[C@@H](O)CC1=O)[C@H](C)C[C@@H]2OC [FK506, 17-allyl-1,14-dihydroxy-12-[2-(4-hydroxy-3-methoxycyclohexyl)-1-methylvinyl]-23,25-dimethoxy-13,19,21,27-tetramethyl-11,28-dioxa-4-azatricyclo[22.3.1.0^4,9]octacos-18-ene-2,3,10,16-tetraone, reference compound]		NOx ([2]; Table 1, FK506 0.32 mg/kg alone, rat plasma, 5 days after transplantation): >40 µM; MST (Median Survival Time) ([3]; Table 1, FK506 0.32 mg/kg alone): 8.5 days; MST (Median Survival Time) ([3]; Table 2, FK506 0.32 mg/kg alone): 10 days
Cn1c(-c2ccc(N3CCOCC3)cc2)cnc1[C@H](Cc1ccccn1)NC(=O)c1cc2cc(Cl)ccc2o1 [(g)]	100	elevated NOx production during cardiac allograft rejection ([2]; rat cardiac allograft, in a dose-dependent manner): inhibited; MST (Median Survival Time) ([3]; Table 2, compound (g) 10 mg/kg + FK506 0.32 mg/kg): >30 days; graft survival ([3]; combination with FK506, rat cardiac allograft): dramatically prolonged
Cn1c(-c2ccc([N+](=O)[O-])cc2)cnc1[C@H](CC(=O)Nc1ccc2c(c1)OCO2)NC(=O)c1cc2ccccc2[nH]1 [(e)]	100	
COc1ccc(NC(=O)C[C@H](NC(=O)c2cc3ccccc3[nH]2)c2ncc(-c3ccc([N+](=O)[O-])cc3)n2C)cc1 [(d)]	100	
CCOc1ccc(-c2c(Cc3ccccc3)nc([C@H](Cc3ccccn3)NC(=O)c3cc4ccccc4[nH]3)n2C)cc1 [(a)]	100	
Cn1c(-c2ccc([N+](=O)[O-])cc2)cnc1[C@H](Cc1ccccn1)NC(=O)c1cc2cc(Cl)ccc2[nH]1 [(b)]	100	
